Laboratory results from a melting point compilation (Tetko et al.; mined from patent text by program, amines drawn as free bases though some values may be those of a salt).

| Compound | melting point [°C] |
| --- | --- |
| CC(C)CC(=O)Nc1c(C(=O)c2ccoc2)[nH]c2cc(Cl)ccc12 | 202 to 203 |
| COc1cc2c(c3c1OC(C)(C)C3)C(c1cccc(NC(=O)C(C)(C)CCl)c1)=NC(C)(C)C2 | 189 to 191 |
| NC1CCCN(c2ncc3ncnc(Nc4ccc(F)c(Cl)c4)c3n2)CC1 (centres undefined) | 122 to 124 |
| CCOc1cc(C(=O)CCCC2CCCCC2)c(OCC)cc1C | 49 to 50 |
| N#Cc1ccc(-c2csc(N3C(=O)OCC34CC4)n2)cc1 | 219 to 221 |
| CCOC(=O)c1c[nH]c2c1-c1ncccc1CCC2 | 96 to 98 |
| O=c1[nH]c(=O)n(C2CC(F)C(CO)O2)cc1Cl (centres undefined) | 183 to 184 |
| Cc1cc(-c2nnc3c4ccccc4c(OCc4ncc[nH]4)nn23)no1 | 188 to 189 |
| O=S1(=O)N=C(n2ccnc2)Nc2cc(F)c(F)cc21 | 264 to 266 |
| Cc1ccnc2c(N)cc(F)cc12 | 100 to 101 |
| O=S1N=CC(NCc2ccncc2)=N1 (centres undefined) | 129 to 130 |
| CCCCCCCCCCCC[C@]1(O)C(=O)O[C@H](C(=O)OC)[C@@]1(O)C(=O)OC (racemic) | 74 to 76 |
| Cn1cc(C(=O)O)c(=O)c2oc3ccc(Cl)cc3c(=O)c21 | 295 to 297 |
| NC(=O)N(O)Cc1ccc(Sc2ccc(Cl)cc2)s1 | 158 to 160 |
| Cc1ccc(NC(=O)NCc2ccc3c(c2)CN(C2CCC(=O)N(COC(=O)C4CCN(C(=O)OC(C)(C)C)CC4)C2=O)C3=O)cc1Cl (centres undefined) | 157 to 159 |
| O=C(O)c1cc(Cl)c(C(=O)O)c([N+](=O)[O-])c1Cl | 287 to 288 |
| Cc1ccc(Oc2ccc(-n3cc(C(=O)O)cn3)cc2)c(O)c1 | 231 to 233 |
| O=CCCCCC(=O)Nc1ccc(C(F)(F)F)cc1 | 130 to 131 |
| CCOC(=O)Nc1cc(Oc2ccc3ccccc3c2)c(C#N)cc1F | 132 |
| NC1=NS(=O)N=C1NCCCOc1cccc(CN2CCCCC2)n1 (centres undefined) | 145 to 147 |
| OCc1cc(C(F)(F)F)ccc1Sc1ccccc1 | 84 |
| Cc1cc(C)n2nc(-c3ccccc3)c(CC(=O)N(C)C)c2n1 | 171 to 172 |

| Compound | melting point [°C] |
| --- | --- |
| Clc1ccc(C#CCBr)cc1 | 41 to 43 |
| CCCCc1ccc(NC(=O)CBr)c([N+](=O)[O-])c1 | 56 to 57 |
| O=C(O)C=CC(=O)NCCC(F)=C(F)F | 64 to 66 |
| C#CCOc1cc(-n2nc3c(Cl)cc(Cl)cn3c2=O)c(F)cc1C#N | 145 to 147 |
| CCOC(=O)C1=C(COCc2cc(=O)n(C)c(C)n2)NC(C)=C(C(=O)OC)C1c1cccc(Cl)c1Cl (centres undefined) | 153 to 158 |
| CC(C)=CCc1cc(C2Oc3c(CC=C(C)C)c(O)cc(O)c3C(=O)C2O)ccc1O (centres undefined) | 95 to 96 |
| CCCc1c(OCc2ccc(C(=O)OC)cc2)ccc(C(C)=O)c1O | 99.5 to 100 |
| CCN(CC)CCNC(=O)c1cc(Cl)c(N)cc1OCCO | 144 to 146 |
| CC(=O)Nc1cccc2c(OC(C)=O)c(S(=O)(=O)NC(C)(C)C)ccc12 | 203 to 206 |
| CCC1(CC)c2ccccc2-c2ccccc21 | 29 to 30 |
| NS(=O)(=O)Oc1ccc2c(c1)S(=O)(=O)N=C2C1CCCCC1 | 170 |
| CCn1c(=O)sc2cc([N+](=O)[O-])ccc21 | 200 to 203 |
| COCCc1nc2c(N)nc3ccccc3c2n1CCOCCS(C)(=O)=O | 142 to 144 |
| CC(=O)OC1CSC(Oc2cncc(-c3ccncc3C)c2)C(OC(C)=O)C1OC(C)=O (centres undefined) | 153 to 174 |
| Cn1c(C(F)(F)F)cc(=O)n(-c2cc(OCCC3OCCCO3)c(Cl)cc2F)c1=O | 128 to 130 |
| O=C(O)CCC(=O)c1ccc([N+](=O)[O-])c(O)c1 | 158 to 160 |
| CCCOc1ccccc1-c1nc2nc(NN)ncc2c(=O)[nH]1 | 219 to 220 |
| O=C1NC(=S)N/C1=C\c1c[nH]c2ncc(-c3ccccc3)cc12 | 265 to 270 |
| CCOc1nc(-c2ccc(Cl)cc2)c(CCC(=O)O)o1 | 148 to 149 |
| COc1cccc([C@H](C(C)C)N2CCC(c3noc4cc(F)ccc34)CC2)c1 | 40 to 42 |
| O=C1OC(O)(C(F)(F)F)c2cccc(O)c21 (centres undefined) | 128 to 129 |
| Cc1nnc(C)c(-c2c(F)cc(F)cc2F)c1-c1cccs1 | 100 to 102 |

| Compound | melting point [°C] |
| --- | --- |
| O=c1[nH]c(NCCSCc2cccs2)ncc1Cc1cccnc1 | 145 to 148 |
| CC(C)Oc1ccc(CO)c(Oc2ncc(C(F)(F)F)cc2Cl)c1 | 63 to 64 |
| CNC(=O)Cc1cccc2c(C(C)C)nccc12 | 153 to 154 |
| Cc1cc2oc(=O)c3c(c2cc1Cl)CCNC3 | 184 to 185 |
| COc1ccc(Oc2nc(Oc3ccc(OC)c(F)c3)nc(Oc3ccc(OC)c(F)c3)n2)cc1F | > 210 |
| O=C(CCl)c1ccc(CCO)cc1 | 41 to 45 |
| CC(C)(C)OC(=O)CC1=CCC(=O)Nc2ccccc21 | 136 to 138 |
| CC(COc1ccc(/C=C/C(=O)O)cc1)N(C)C (centres undefined) | 231 |
| COc1cc(-n2cnc3cc(-c4ccc(Cl)cc4)sc3c2=O)ccc1OC[C@H](O)C1CC1 | 178 to 179 |
| CCOC(=O)c1c(N)c(Br)cc2c1OCO2 | 81 to 83 |
| CCOC(=O)C1Cc2ccccc2N1C(=O)C(C)Br (centres undefined) | 101 to 103 |
| COc1ccc(Br)c(O)c1O | 122 to 124 |
| CC(C)Nc1cncc(C#N)c1 | 82 |
| COC(=O)C1OC2(CCC3(CC2)OC(C(=O)OC)C(C(=O)OC)O3)OC1C(=O)OC (centres undefined) | 75 to 77 |
| CCSc1cc(C(=O)O)cc(N)c1Oc1ccccc1 | 154 to 155 |
| COc1ccc(-c2cc(C(F)F)nn2-c2ccc(S(N)(=O)=O)cc2)cc1I | 135 to 137 |
| CC(C)CN1c2ccccc2C(C)(C)C12C=Nc1c(cc(N3CCc4ccccc43)c3ccccc13)O2 (centres undefined) | 167 to 168 |
| CC(C)c1nnc2ccc(-c3ocnc3-c3c(F)cccc3F)cn12 | 176 |
| COC(=O)[C@]1(OS(C)(=O)=O)C[C@H](CC(C)C)[C@@H](O)[C@H](O)C1 | 122 to 123 |
| Cn1ncc(Cl)c(NCCN2CCC(c3noc4cc(F)ccc34)CC2)c1=O | 108 to 109 |
| O=[N+]([O-])c1ccccc1NCCCCCCCCCCCCNc1ccccc1[N+](=O)[O-] | 79 to 80 |

Continued, values first:

| melting point [°C] | Compound |
| --- | --- |
| 174 | N#CC1=C(c2ccccc2)Nc2n[nH]cc2C1c1cccc2ccccc12 (centres undefined) |
| 178 to 180 | O=C(NCc1ccc(F)c(F)c1)c1ccnc(N2CCN(Cc3cccnc3)C2=O)c1 |
| 76 to 77 | CN(C)c1cccc(CC(=O)C(F)(F)c2ccccc2)c1 |
| 146 to 148 | CNc1nc(-c2cccc(NC(=O)c3ccccc3)c2)c2cc(OC)c(OC)cc2n1 |
| 196 to 197 | COc1cc(C(=O)c2cnc3ccccc3c2)ccc1O |
| 203 to 205 | NC(=O)c1c(Cl)c(-c2ccccc2)n2c1CN(S(=O)(=O)c1ccc([N+](=O)[O-])cc1)CC2 |
| 118 to 119 | COc1ccccc1CNC(=O)C(=O)NCCc1ccccn1 |
| 133 | CO[C@@H]1C[C@H](C(=O)Nc2ccc(N3CCOCC3=O)cc2)N(C(=O)Nc2ccc(Cl)cc2)C1 |
| > 270 | CC(=O)Nc1ccc(Nc2nnc(Cc3ccncc3)c3ccccc23)cc1 |
| 138 to 139 | O=S(=O)(Oc1ccc(-c2cc3ccc(OS(=O)(=O)c4ccccc4)cc3s2)cc1)c1ccccc1 |
| 226 to 228 | Cc1nc(N2CCNC2=O)sc1C(=O)NCc1ccccc1 |
| 247 to 249 | Cc1cccc(-c2nc3cccnn3c2-c2ccnc(NC(=O)Nc3ccccc3)c2)c1 |
| 181 to 184 | CCc1cc(Nc2ccc(Sc3ccc(O)cc3)cc2)nc(N)n1 |
| 145 to 147 | Cc1cn(-c2ccc(S(N)(=O)=O)c(F)c2)c(-c2ccc(-c3cscn3)cc2)n1 |
| 220 to 222 | O=C(O)[C@H](CSc1ccccc1[N+](=O)[O-])N1C(=O)c2ccccc2C1=O |
| 70 | O=C(O)Cc1ccc(SCCNC(=O)C2Cc3ccccc3N2S(=O)(=O)c2ccc(-c3cccc(C(F)(F)F)c3)cc2)c(Cl)c1 (centres undefined) |
| 190 to 193 | Cn1cc(-c2ccccc2)c(=O)c(-c2cccc(I)c2)c1 |

| melting point [°C] | Compound |
| --- | --- |
| 123 | O=S1(=O)c2cccc3cccc(c23)N1CCCCN1CCN(c2nsc3ccccc23)CC1 |
| 161 | CCCn1cc(CN(C(=O)C2CCCc3c(O)cccc32)c2ccc(C(C)C)cc2)cn1 (centres undefined) |
| 152 to 154 | CCNC(=O)Nc1cccc(-c2cccc(OC)c2)c1 |
| 138 to 139 | N#CCOc1ccc2cc(CNC(=O)c3cc4ccccc4o3)ccc2c1 |
| 91 to 92 | CCOC(=O)[C@@H]1C[C@H](OS(=O)(=O)c2ccc(C)cc2)CN1C(=O)OCc1ccccc1 |
| 198 | CN1C(=O)C(Br)=C(c2cn(S(=O)(=O)c3ccccc3)c3ncccc23)C1=O |
| 187 to 188 | Cc1cc(-c2ccc(C(F)(F)F)nc2)cc(-c2cccc(-c3cccc(S(=O)(=O)NC(C)(C)C)c3)n2)n1 |
| 68 to 71 | CC(C)(C)OC(=O)N1Cc2ccccc2CN1CC(O)C(Cc1ccccc1)NC(=O)OCc1ccccc1 (centres undefined) |
| 116 to 120 | COc1cccc(C(O)CN(C)Cc2cc3c(=O)c(C(=O)NCc4ccc(Cl)cc4)cn(C)c3o2)c1 (centres undefined) |
| 175 to 178 | Cc1ccc(N(CCN2CCC(C(=O)c3ccc(F)cc3)CC2)C(=O)c2ccc([N+](=O)[O-])cc2)cc1 |
| 183 to 186 | CS(=O)(=O)OCC1CC(=O)N(c2ccc(-c3ccc(C#N)cc3)cc2)C1 (centres undefined) |
| 192 to 194 | Nc1cccc(-c2ccc(CCN3CC4C(C3)C4NC(=O)Nc3ccccc3)cc2)n1 (centres undefined) |
| 125 to 126 | Cc1oc(-c2ccco2)nc1COc1ccc(Cn2cc(CCC(=O)O)c(-c3ccc(F)cc3)n2)cc1 |
| 207 to 208 | O=C1NCCc2c(CCc3ccccc3)[nH]c3cccc1c23 |
| 158 to 161 | COc1ccc(Oc2c(N)cc(C(=O)O)cc2SCc2ccccc2)cc1 |
| 182 | CC(c1ccc(C(=O)O)cc1)N(C)c1ccc(Br)cc1OCc1ccccc1 (centres undefined) |
| 135 to 137 | CCn1nc(C(=O)NC2CN(C)CCN(Cc3ccccc3)C2)c2ccccc21 (centres undefined) |
